Patent publication US20260209260A1, “VECTORIZED NHC IRIDIUM(III) COMPLEXES AND USE THEREOF IN PHOTODYNAMIC THERAPY AND/OR DIAGNOSTIC” (CENTRE NATIONAL DE LA RECHERCHE SCIENTIFIQUE, priority 2022, published 2026)
Like-named read-outs stand apart in the source and are kept apart here.

Experiments:
[1] = POPOP in hexane, rhodamine B in ethanol; cited from earlier work
[2] = test system: NIH-3T3 fibroblast cells (non-tumor); assay: Cell viability assay (MTT), dark and blue light; format: cell-based, Murine
Procedure, shortened: (§1)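 Viability determined by MTT assay (A570) after 72 h treatment in 0.1% DMSO, with or without a 10 min irradiation at 8 h. Data from at least three independent experiments run in triplicate.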

[3] = test system: MC3T3 osteoblast cells (non-tumor); assay: Cell viability assay (MTT), dark and blue light; format: cell-based, Murine
Procedure, shortened: as §1

[4] = test system: ASPC-1 pancreas cancer cells; assay: Cell viability assay (MTT), dark and blue light; format: cell-based, Human
Procedure, shortened: as §1

[5] = test system: T24 bladder cancer cells; assay: Cell viability assay (MTT), dark and blue light; format: cell-based, Human
Procedure, shortened: as §1

[6] = test system: MiaPaCa2 pancreas cancer cells; assay: Cell viability assay (MTT), dark and blue light; format: cell-based, Human
Procedure, shortened: as §1

[7] = test system: A549 lung cancer cells; assay: Cell viability assay (MTT), dark and blue light; format: cell-based, Human
Procedure, shortened: as §1

[8] = UV/Vis absorption spectra; format: physicochemical; conditions: room temperature, air-saturated CH2Cl2 or CH2Cl2/MeOH (1:1), 50 μM; ε in brackets, sh = shoulder
Procedure: UV/Vis absorption spectra were recorded at RT on solutions contained in quartz cuvettes (optical pathlength 1 cm, Hellma®) with a PerkinElmer® UV/VIS/NIR spectrophotometer Lambda 950 and a PerkinElmer® detector UV/VIS/NIR Accessory 2D Detector Module.

[9] = test system: cancer cells (all tumor cell lines tested); assay: Cell viability assay (MTT), summary over the cancer cell lines tested; format: cell-based, Human; conditions: dark
Procedure: Cells were grown in humidified incubators at 37° C. in 5% CO2. Murine MC3T3 osteoblast and NIH-3T3 fibroblast cells-used as non-tumor cell models-were cultured in a-MEM medium and DMEM medium supplemented with 10% fetal bovine serum (FBS) and 1% Penicillin/Streptomycin (P/S) antibiotics, respectively. Human T24 bladder, MGHU3 bladder, Scaber bladder, A549 lung, MCF7 breast, MiaPaCa2 pancreas cancer cells were cultured in DMEM medium supplemented with 10% FBS and 1% P/S antibiotics. […] Human Hela cervix and HepG2 liver cancer cells were cultured EMEM medium supplemented with 10% FBS and 1% P/S antibiotics.
MTT reagent (3-(4,5-dimethylthiazol-2-yl)-2,5-diphenyltetrazolium bromide) was used to determine cell death as originally described by Mosmann. Briefly, cells were seeded from 5,000 to 10,000 cells/well in 24-well plates (1 mL) depending on the cell type and allowed to attach overnight. The complexes were prepared in DMSO. The concentration of the complexes was calculated based on the elemental composition of the complexes determined by the elemental analyses. All cell viability experiments were carried out with a fixed concentration of 0.1% (v/v) DMSO. After 72 h of treatment, cells were incubated at 37° C. and 5% CO2 with 25 μL of MTT solution (5 mg/ml; Sigma-Aldrich) in 24-well plates for 3 to 4 h. After solubilization with 500 μL of DMSO, formazan was quantified spectrophotometrically with a microplate reader at 570 nm absorbance (ClarioSTAR, BMG LabTech). […] All the results were calculated from data obtained in at least three independent experiments performed in triplicate.
Two sets of experiments were conducted in parallel for each complex to be studied:
1. The cells were incubated with the different complexes (in the dark) for 72 h.
2. The cells were incubated for 8 h with the different complexes (in the dark), then irradiated for 10 min, followed by an incubation in the dark up to 72 h.

[10] = Luminescence emission spectra and quantum yield; format: physicochemical; conditions: room temperature; reference POPOP in hexane or rhodamine B in ethanol
Procedure, shortened: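 Relative luminescence quantum yields (Demas–Crosby) were derived from integrated emission areas of sample versus reference standard, with solvent refractive-index correction, on RT solutions. Emission spectra, fluorescence and phosphorescence, were taken for the complexes in CH2Cl2 at room temperature.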

[11] = Emission lifetime measurement; format: physicochemical
Procedure, shortened: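 Time-correlated single-photon counting with 0.5 ns resolution, using D2-lamp or 405 nm pulsed-diode-laser excitation, gave the lifetimes; quoted uncertainty is 5%.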

[12] = Lipophilicity: octanol-water partition coefficient, shake-flask method; conditions: n-octanol/water, shake-flask, mean of at least three determinations
Procedure, shortened: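 Octanol and water mutually pre-saturated for 24 h; compound ([…] stock in aqueous phase) partitioned against equal volume n-octanol, mixed 15 min, phases separated by centrifugation.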

Compound: CCN(CC)c1ccc2c(-c3ccccc3C(=O)O)c3ccc(=[N+](CC)CC)cc-3oc2c1.[Cl-] [rhodamine B]
- quantum yield of the reference standard [1]: 65%

Compound: COC(=O)c1ccc2[n+](c1)[Ir-3]13([c]4ccccc4-2)([c]2ccccc2-c2ccc(C(=O)OC)c[n+]21)[c]1n(CCCNC(=O)c2ccccc2SC/C=C(\C)CC/C=C(\C)CCC=C(C)C)cc[n+]1-c1cccc[n+]13.F[P-](F)(F)(F)(F)F [II-e]
- GI50 ([2]; 8 h in the dark, blue light 458 nm 10 min, then dark up to 72 h, read-out: GI50 NIH-3T3 Blue): 5200 nM
- Photosensitizing index (PI) NIH-3T3 ([2]; dark vs blue light 458 nm): 2.3
- GI50 ([2]; in the dark, 72 h, read-out: GI50 NIH-3T3 Dark): 12000 nM
- GI50 ([3]; 8 h in the dark, blue light 458 nm 10 min, then dark up to 72 h, read-out: GI50 MC3T3 Blue): 10100 nM
- Photosensitizing index (PI) MC3T3 ([3]; dark vs blue light 458 nm): 1.1
- GI50 ([3]; in the dark, 72 h, read-out: GI50 MC3T3 Dark): 11000 nM
- GI50 ([4]; 8 h in the dark, blue light 458 nm 10 min, then dark up to 72 h, read-out: GI50 ASPC-1 Blue): 1300 nM
- SI (vs MC3T3) ASPC-1 Blue ([4]; blue light 458 nm): 7.9
- SI (vs NIH-3T3) ASPC-1 Blue ([4]; blue light 458 nm): 4.1
- SI (vs MC3T3) ASPC-1 Dark ([4]; dark): 2.2
- SI (vs NIH-3T3) ASPC-1 Dark ([4]; dark): 2.3
- Photosensitizing index (PI) ASPC-1 ([4]; dark vs blue light 458 nm): 4.0
- GI50 ([4]; in the dark, 72 h, read-out: GI50 ASPC-1 Dark): 5100 nM
- GI50 ([5]; 8 h in the dark, blue light 458 nm 10 min, then dark up to 72 h, read-out: GI50 T24 Blue): 260 nM
- SI (vs MC3T3) T24 Blue ([5]; blue light 458 nm): 38.8
- SI (vs NIH-3T3) T24 Blue ([5]; blue light 458 nm): 20.0
- SI (vs MC3T3) T24 Dark ([5]; dark): 5.0
- SI (vs NIH-3T3) T24 Dark ([5]; dark): 5.5
- Photosensitizing index (PI) T24 ([5]; dark vs blue light 458 nm): 8.6
- GI50 ([5]; in the dark, 72 h, read-out: GI50 T24 Dark): 2200 nM
- GI50 ([6]; 8 h in the dark, blue light 458 nm 10 min, then dark up to 72 h, read-out: GI50 MiaPaCa2 Blue): 180 nM
- SI (vs MC3T3) MiaPaCa2 Blue ([6]; blue light 458 nm): 57.7
- SI (vs NIH-3T3) MiaPaCa2 Blue ([6]; blue light 458 nm): 29.7
- SI (vs MC3T3) MiaPaCa2 Dark ([6]; dark): 5.6
- SI (vs NIH-3T3) MiaPaCa2 Dark ([6]; dark): 6.1
- Photosensitizing index (PI) MiaPaCa2 ([6]; dark vs blue light 458 nm): 11.2
- GI50 ([6]; in the dark, 72 h, read-out: GI50 MiaPaCa2 Dark): 2000 nM
- GI50 ([7]; 8 h in the dark, blue light 458 nm 10 min, then dark up to 72 h, read-out: GI50 A549 Blue): 690 nM
- SI (vs MC3T3) A549 Blue ([7]; blue light 458 nm): 14.6
- SI (vs NIH-3T3) A549 Blue ([7]; blue light 458 nm): 7.5
- SI (vs MC3T3) A549 Dark ([7]; dark): 2.9
- SI (vs NIH-3T3) A549 Dark ([7]; dark): 3.2
- Photosensitizing index (PI) A549 ([7]; dark vs blue light 458 nm): 5.5
- GI50 ([7]; in the dark, 72 h, read-out: GI50 A549 Dark): 3800 nM
- λmax (nm) ε (M^−1 · cm^−1) [8]: 310 (sh) (24540), 363 (sh) (5975), 432 (5280) nm (M^−1 · cm^−1)
- SI values, mean over cancer cells, dark [9]: 4.1 fold
- SI values, median over cancer cells, dark [9]: 4.1 fold
- ΦP emission phosphorescence quantum yield [10]: 4.6%
- τ1 emission lifetime [11]: 182 ns
- Log P [12]: 1.30 ± 0.02
